Reference: US20230192701A1, “BICYCLIC KINASE INHIBITORS AND USES THEREOF” (iOmx Therapeutics AG, priority 2020, published 2023)

What was measured:
SIK2 = SIK2 (Homo sapiens, UniProt Q9H0K1); assay: radiometric protein kinase assay (33PanQinase Activity Assay), SIK2; format: biochemical; details: ATP 1.0 μM, substrate RBER-CHKtide
Method: The IC50s of the compounds against the SIK family of protein-serine/threonine kinases (SIK2 and SIK3) were determined as followed. Briefly, a radiometric protein kinase assay (33PanQinase® Activity Assay) was used for measuring the kinase activity of the two protein kinases. The kinase assays were performed in 96-well FlashPlates™ from PerkinElmer (Boston, Mass., USA) in a 50 uL reaction volume. The reaction cocktail was pipetted in four steps in the following order: • […] (standard buffer/[gamma-33P]-ATP) • 10 uL of ATP solution (in water) • 5 uL of test compound (in 10% DMSO) • 20 uL enzyme/substrate mix
The following amounts of enzyme and applicable substrate were used per well:
The reaction cocktails were incubated at 30 °C for 60 minutes. The reaction was stopped with 50 uL of 2% (v/v) H3PO4, plates were aspirated and washed two times with 200 μL 0.9% (w/v) NaCl. Incorporation of 33Pi was determined with a microplate scintillation counter (Microbeta, Wallac). All assays were performed with a BeckmanCoulter/SAGIAN™ Core System.

MC38 tumour cells = assay: TNF-sensitised cell viability assay (CellTiter-Glo), MC38; format: cell-based, murine; details: Mus musculus, MC-38, read-out: MC38 IC50 (at 100 ng/ml rMuTNF); 100 ng/ml rMuTNF, 72 h
[1] = Human liver microsomal stability; format: in vitro ADME; details: pH 7.4; human liver microsomes, NADPH, 37°C
Method: (§1) Briefly, human and liver microsomal stability was determined by pre-incubation of 2.5 uL compound and 75 uL of the respective liver microsomes in potassium phosphate buffer (pH 7.4) at 37° C. After adding of NADPH as cofactor and further incubation at 37° C. for 60 min, acetonitrile containing internal standard was added, and the sample was vortexed for 5 min at 1200 rpm and then centrifuged 10 min at 4000 rpm.
(§2) LC-MS/MS was performed for all assays using a C18 column (50*4.6 mm, 5 um) for the CaCo2 assay, or a C18 column (50*4.6 mm, 4 um) for the other assays. The mobile phases used were 10 mM Ammonium Acetate with 0.1% Formic acid (aqueous) and 100% Acetonitrile (organic).

[2] = Mouse liver microsomal stability; format: in vitro ADME; details: pH 7.4; mouse liver microsomes, NADPH, 37°C
Method: as §1, §2

[3] = Human plasma-protein binding (RED method); format: in vitro ADME
Method: Human and mice protein plasma binding was determined using the Plasma Protein Binding by RED Method. Briefly, 200 uL of the respective plasma containing the test compound (10 uM) was spiked into the donor well (RED Chamber) of the insert. 350 uL of PBS was spiked into receiver well (white chamber). The plate was incubated at 37° C. in a thermomixer at 400 rpm for 5 hours. The samples were matrix equilibrated with opposite matrix (25 uL blank buffet/Plasma). Matrix matched samples were precipitated with 200 uL of Acetonitrile containing Internal standard. Samples were vortexed at 1000 rpm for 5 min and centrifuged at 4000 rpm for 10 min. The supernatant was diluted 2 folds with water and % bound and unbound protein and % recovery at 5 h was determined by LC-MS/MS.
as §2

[4] = CaCo2 permeability and efflux assay; format: in vitro ADME; details: human, Caco-2; CaCo2, mean efflux ratio
Method: (§3) To determine apparent permeability of the compounds an assay using a Caco-2 cells monolayer (cultured for 21d) in a 24-well format (poly carbonate high pore density plate with 0.4 μm pore size and a 0.7 cm2 active membrane area; Millipore) was performed as followed. 800 uL of DMEM was added to the basal compartment of the 24 well-plate and 60000 CaCo2 cells/well were seeded in the apical wells and incubated in a CO2 incubator at 37° C. for proliferation of cells. Apical to Basal permeability was determined by adding 400 uL of test compound to the apical well and 800 uL of HBSS buffer with 2% BSA to the basal well. 25 uL of basal sample was collected after 120 min and processed as stated below. Basal to Apical permeability was determined by adding 800 uL of test compound to basal well and 400 uL of HBSS buffer with 2% BSA to apical well. 25 uL of apical sample was collected after 120 min and processed as stated below. The samples were processed by diluting the donor samples 1:1 with HBSS containing 2% BSA and the receiver samples 1:1 with HBSS buffer. Samples were then precipitated with 200 uL of acetonitrile containing internal standard, vortexed for 5 min at 1000 rpm, and centrifuged at 4000 rpm for 20 min. 150 uL of supernatant was diluted with 150 uL of water and submitted for LC-MS/MS analysis, and Bi-directional (A-B and B-A) apparent permeability (Papp) was calculated.
as §2

Caco-2 cells monolayer = assay: CaCo2 permeability and efflux assay; format: in vitro ADME; details: CaCo2, apical to basal, 120 min
Method: as §3, §2

[5] = pharmacokinetic study, plasma level after single po or iv administration; format: in vivo, male CD1 mice; details: mice
Method: Screening PK properties of compounds of Formula (I) are additionally determined, including plasma and free plasma concentration, as well as Cmax. For example, the free concentration of compound after a dose of eg 30 mg/kg po (per os) administered mice can be determined for certain time points after administrations.
To further investigate PK properties of kinase inhibitors of Formula (I), the compounds are tested for in vivo drug exposure and potency in a full pharmacokinetic study with oral administration (per os, po).
The experimental procedure and the determination of the pharmacokinetic parameters are investigated after single administration of each compound per gavage in male CD1 mice (Intonation Research Laboratories (Hyderabad, India)). The compounds are diluted in 5% DMSO+5% Solutol+90% water. Plasma level (eg sampling 0.25 h; 0.5 h; 1 h; 1.5 h; 2 h; 4 h; 6 h; 12 h; 24 h after drug administration) of the compounds are analysed by LC-MS/MS and pharmacokinetic parameters are determined using non-compartmental analysis and nominal dose levels of eg 30 mg/kg po and 1 mg/kg iv. Three animals are analysed per time point and each mouse is used for three plasma samplings in total.

SIK2, sequence (Q9H0K1 whole entry): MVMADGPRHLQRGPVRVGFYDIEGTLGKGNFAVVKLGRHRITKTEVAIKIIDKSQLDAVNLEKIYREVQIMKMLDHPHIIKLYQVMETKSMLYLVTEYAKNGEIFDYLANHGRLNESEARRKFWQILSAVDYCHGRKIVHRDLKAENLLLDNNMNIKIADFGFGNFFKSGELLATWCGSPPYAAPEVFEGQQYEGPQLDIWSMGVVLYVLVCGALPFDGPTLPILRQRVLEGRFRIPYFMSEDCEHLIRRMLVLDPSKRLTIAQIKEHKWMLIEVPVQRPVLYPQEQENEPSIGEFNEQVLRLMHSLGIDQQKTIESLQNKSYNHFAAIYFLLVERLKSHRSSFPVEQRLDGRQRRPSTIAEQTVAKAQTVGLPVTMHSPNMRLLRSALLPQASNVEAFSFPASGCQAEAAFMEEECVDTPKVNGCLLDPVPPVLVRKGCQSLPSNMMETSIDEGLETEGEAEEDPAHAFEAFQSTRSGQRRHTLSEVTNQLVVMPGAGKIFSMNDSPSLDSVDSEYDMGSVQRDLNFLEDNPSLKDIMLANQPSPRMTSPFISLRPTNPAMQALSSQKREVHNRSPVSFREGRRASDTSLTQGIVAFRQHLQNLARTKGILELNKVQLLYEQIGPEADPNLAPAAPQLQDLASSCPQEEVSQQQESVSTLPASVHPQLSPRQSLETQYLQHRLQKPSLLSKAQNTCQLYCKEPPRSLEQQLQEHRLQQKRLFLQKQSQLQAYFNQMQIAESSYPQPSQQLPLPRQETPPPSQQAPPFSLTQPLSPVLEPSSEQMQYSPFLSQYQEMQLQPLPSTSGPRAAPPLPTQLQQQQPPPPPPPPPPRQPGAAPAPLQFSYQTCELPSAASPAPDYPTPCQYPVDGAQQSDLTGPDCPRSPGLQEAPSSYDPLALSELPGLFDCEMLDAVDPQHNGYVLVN

- IC50 (SIK2): 100 to 200 nM
- half-life [1]: 18 min
- half-life [2]: 45 min
- recovery at 5 h, 10 uM [3]: 32%
- efflux ratio at 120 min [4]: 2.4
- A > B(10 EE-06 cm/s) (Caco-2 cells monolayer): 10.5 10 EE-06 cm/s
- compound detectable in plasma after 24 h ([5]; 1 mg/kg iv): detectable after 24 hours
- compound detectable in plasma after 24 h ([5]; 30 mg/kg po): detectable after 24 hours
SMILES: COc1ccc(N2C(=O)N(c3c(C)csc3Cl)Cc3cnc(Nc4ccc(C5CCN(C)CC5)cc4OC)nc32)nc1 [AA1, 3-(2-chloro-4-methylthiophen-3-yl)-7-((2-methoxy-4-(1-methylpiperidin-4-yl)phenyl)amino)-l-(5-methoxypyridin-2-yl)-3,4-dihydropyrimido[4,5-d]pyrimidin-2(1H)-one]
- IC50 (MC38 tumour cells): 1000 to 1500 nM
